Assay results: the supplement of paper PMC11061612

Key:
5637 (Bladder Carcinoma) = assay: Bliss excess, mean over the matrix (fraction); higher = more synergy
Summary of the method: (§1)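 Cell lines in DMEM/F12 or RPMI with 10% FBS were plated in 1536-well plates, held 24 hours at 37°C, 5% CO2, then given two-drug dose matrices for 72 hours (DMSO typically 0.2%). Viability was read by CellTiter-Glo 2.0 luminescence and scaled as inhibition from 0 (vehicle wells) to 1 (blank wells). Combination Emax is the second-highest inhibition in the matrix; Bliss excess is observed combination effect minus expected EA + EB − EA·EB, EA and EB being single-agent effects.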

A204 (Rhabdomyosarcoma) = assay: as above
Summary of the method: as §1

COLO-792 (Melanoma) = assay: as above
Summary of the method: as §1

[1] = system: DU-4475 (Breast Carcinoma); assay: as above
Summary of the method: as §1

[2] = system: ESO26 (Esophageal Adenocarcinoma); assay: as above
Summary of the method: as §1

[3] = system: G-402 (Other Solid Carcinomas); assay: as above
Summary of the method: as §1

[4] = system: GCT (Other Solid Carcinomas); assay: as above
Summary of the method: as §1

[5] = system: JIMT-1 (Breast Carcinoma); assay: as above
Summary of the method: as §1

[6] = system: JVM-2 (B-Cell Non-Hodgkin's Lymphoma); assay: as above
Summary of the method: as §1

[7] = system: KYSE-140 (Esophageal Squamous Cell Carcinoma); assay: as above
Summary of the method: as §1

[8] = system: LS-411N (Colorectal Carcinoma); assay: as above
Summary of the method: as §1

NB13 (Neuroblastoma) = assay: as above
Summary of the method: as §1

[9] = system: huH-1 (Hepatocellular Carcinoma); assay: as above
Summary of the method: as §1

769-P (Kidney Carcinoma) = assay: combination Emax (second highest fraction inhibited in the dose matrix, 72 h); higher = more inhibition; extreme values may be limits of the assay
Summary of the method: as §1

[10] = system: A2780 (Ovarian Carcinoma); assay: as above
Summary of the method: as §1

[11] = system: CGTH-W-1 (Thyroid Gland Carcinoma); assay: as above
Summary of the method: as §1

EW-7 (Ewing's Sarcoma) = assay: as above
Summary of the method: as §1

[12] = system: HCC1395 (Breast Carcinoma); assay: as above
Summary of the method: as §1

[13] = system: JHH-2 (Hepatocellular Carcinoma); assay: as above
Summary of the method: as §1

[14] = system: SK-HEP-1 (Hepatocellular Carcinoma); assay: as above
Summary of the method: as §1
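For Bliss excess, mean over the matrix in this document: after 72 h of two-drug dosing.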

SMILES | Bliss excess (5637 (Bladder Carcinoma)) | Bliss excess (A204 (Rhabdomyosarcoma)) | Bliss excess (COLO-792 (Melanoma)) | Bliss excess [1] | Bliss excess [2] | Bliss excess [3] | Bliss excess [4] | Bliss excess [5] | Bliss excess [6] | Bliss excess [7] | Bliss excess [8] | Bliss excess (NB13 (Neuroblastoma)) | Bliss excess [9] | combination Emax (769-P (Kidney Carcinoma)) | combination Emax [10] | combination Emax [11] | combination Emax (EW-7 (Ewing's Sarcoma)) | combination Emax [12] | combination Emax [13] | combination Emax [14]
CN(CCO)CC[C@H](CSc1ccccc1)Nc1ccc(S(=O)(=O)NC(=O)c2ccc(N3CCC([C@@H](O)c4ccccc4-c4ccc(Cl)cc4)CC3)cc2)cc1S(=O)(=O)C(F)(F)F [AZD4320] + C1CN(CCC1(C(=O)N[C@@H](CCO)C2=CC=C(C=C2)Cl)N)C3=NC=NC4=C3C=CN4 [Capivasertib] (first compound max 1 µM, 7x7, partner max 3 µM) | -0.0471 | -0.0393 | 0.0021 | 0.069 | -0.0271 | -0.0262 | -0.021 | -0.0424 | -0.0068 | -0.0432 | -0.048 | 0.0174 | -0.0215 | 0.576 | 0.515 | 0.19 | 0.861 | 0.408 | 0.539 | 0.245
CN(CCO)CC[C@H](CSc1ccccc1)Nc1ccc(S(=O)(=O)NC(=O)c2ccc(N3CCC([C@@H](O)c4ccccc4-c4ccc(Cl)cc4)CC3)cc2)cc1S(=O)(=O)C(F)(F)F [AZD4320] + C=CCn1c(=O)c2cnc(Nc3ccc(N4CCN(C)CC4)cc3)nc2n1-c1cccc(C(C)(C)O)n1 [AZD1775] (first compound max 1 µM, partner max 1 µM) | 0.0437 | -0.0304 | 0.0939 | 0.0013 | -0.0318 | -0.0345 | -0.0363 | 0.0363 | 0.0965 | -0.0161 | 0.0549 | 0.0475 | 0.01 | 0.962 | 0.666 | 0.106 | 1 | 0.69 | 0.604 | 0.327
CN(CCO)CC[C@H](CSc1ccccc1)Nc1ccc(S(=O)(=O)NC(=O)c2ccc(N3CCC([C@@H](O)c4ccccc4-c4ccc(Cl)cc4)CC3)cc2)cc1S(=O)(=O)C(F)(F)F [AZD4320] + CC(=O)O[C@H]1C(=O)[C@@]2(C)[C@H]([C@H](OC(=O)c3ccccc3)[C@]3(O)C[C@H](OC(=O)[C@H](O)[C@@H](NC(=O)c4ccccc4)c4ccccc4)C(C)=C1C3(C)C)[C@]1(OC(C)=O)CO[C@@H]1C[C@@H]2O [Paclitaxel] (first compound max 1 µM, 7x7, partner max 3 µM) | – | – | – | – | – | – | – | – | – | – | – | – | – | 0.958 | 0.946 | 0.881 | 1 | 0.838 | 0.93 | 0.952
CN(CCO)CC[C@H](CSc1ccccc1)Nc1ccc(S(=O)(=O)NC(=O)c2ccc(N3CCC([C@@H](O)c4ccccc4-c4ccc(Cl)cc4)CC3)cc2)cc1S(=O)(=O)C(F)(F)F [AZD4320] + CCN(CCO)CCCOc1ccc2c(Nc3cc(CC(=O)Nc4cccc(F)c4)[nH]n3)ncnc2c1 [AZD2811] (first compound max 1 µM, 7x7, partner max 1 µM) | -0.0117 | -0.0553 | 0.0627 | 0.0738 | -0.0266 | 0.0415 | -0.0089 | 0.0004 | 0.0677 | 0.0082 | 0.0119 | 0.0975 | 0.0161 | 0.752 | 0.49 | 0.292 | 0.817 | 0.309 | 0.169 | 0.793
CN(CCO)CC[C@H](CSc1ccccc1)Nc1ccc(S(=O)(=O)NC(=O)c2ccc(N3CCC([C@@H](O)c4ccccc4-c4ccc(Cl)cc4)CC3)cc2)cc1S(=O)(=O)C(F)(F)F [AZD4320] + C[C@@H]1COCCN1C2=NC(=NC(=C2)C3(CC3)[S@](=N)(=O)C)C4=C5C=CNC5=NC=C4 [AZD6738] (first compound max 1 µM, 7x7, partner max 10 µM) | -0.05 | -0.0207 | -0.105 | 0.0521 | -0.0439 | -0.0805 | -0.0313 | 0.0079 | 0.0102 | -0.0299 | 0.0135 | -0.0167 | 0.0215 | 0.966 | 0.799 | 0.424 | 1 | 0.819 | 0.792 | 0.411
CN(CCO)CC[C@H](CSc1ccccc1)Nc1ccc(S(=O)(=O)NC(=O)c2ccc(N3CCC([C@@H](O)c4ccccc4-c4ccc(Cl)cc4)CC3)cc2)cc1S(=O)(=O)C(F)(F)F [AZD4320] + C[C@@H](Nc1cc(F)cc(F)c1)c1cc(C(=O)N(C)C)cc2c(=O)cc(N3CCOCC3)oc12 [AZD8186] (first compound max 1 µM, 7x7, partner max 3 µM) | -0.0028 | 0.0119 | 0.0763 | 0.0131 | 0.0217 | 0.0818 | 0.0052 | 0.0064 | 0.0133 | -0.0136 | 0.031 | 0.0205 | -0.0461 | 0.341 | 0.543 | 0.476 | 0.947 | 0.476 | 0.77 | 0.778
CN(CCO)CC[C@H](CSc1ccccc1)Nc1ccc(S(=O)(=O)NC(=O)c2ccc(N3CCC([C@@H](O)c4ccccc4-c4ccc(Cl)cc4)CC3)cc2)cc1S(=O)(=O)C(F)(F)F [AZD4320] + Nc1ccn([C@@H]2O[C@H](CO)[C@@H](O)C2(F)F)c(=O)n1 [Gemcitabine] (first compound max 1 µM, 7x7, partner max 0.3 µM) | – | – | – | – | – | – | – | – | – | – | – | 0.0074 | – | 0.903 | 0.893 | 0.887 | 1 | 0.211 | 0.525 | 0.936
COc1nnc2ccc(N3CCC(c4ccc(OCCN5CCN(C)C(=O)[C@H]5C)cc4)CC3)nn12 [AZD5153] + CN(CC[C@H](CSC1=CC=CC=C1)NC2=C(C=C(C=C2)S(=O)(=O)NC(=O)C3=CC=C(C=C3)N4CCC(CC4)[C@H](C5=CC=CC=C5C6=CC=C(C=C6)Cl)O)S(=O)(=O)C(F)(F)F)CCO [AZD4320] (first compound max 1 µM, 7x7, partner max 1 µM) | 0.122 | 0.0084 | 0.0427 | 0.0779 | 0.0233 | 0.0157 | 0.0204 | 0.0486 | 0.0973 | 0.0588 | 0.0969 | – | -0.0206 | – | – | – | – | – | – | –
Cc1cc2ncnn2cc1Nc1ncc2c(n1)n(C1CCOCC1)c(=O)n2C [AZD7648] + COc1cc([C@@H]2c3cc4c(cc3[C@@H](O[C@@H]3O[C@@H]5CO[C@@H](C)O[C@H]5[C@H](O)[C@H]3O)[C@H]3COC(=O)[C@H]23)OCO4)cc(OC)c1O [Etoposide] (first compound max 10 µM, 7x7, partner max 10 µM) | – | – | – | – | – | – | – | – | – | – | – | -0.0803 | – | 0.75 | 0.889 | 0.603 | 0.882 | 0.432 | 0.605 | 0.653
CC(=O)c1c(C)c2cnc(Nc3ccc(N4CCNCC4)cn3)nc2n(C2CCCC2)c1=O [Palbociclib] + CN(CC[C@H](CSC1=CC=CC=C1)NC2=C(C=C(C=C2)S(=O)(=O)NC(=O)C3=CC=C(C=C3)N4CCC(CC4)[C@H](C5=CC=CC=C5C6=CC=C(C=C6)Cl)O)S(=O)(=O)C(F)(F)F)CCO [AZD4320] (first compound max 10 µM, 7x7, partner max 1 µM) | -0.0373 | -0.0397 | -0.0863 | 0.0318 | -0.0562 | -0.0503 | -0.0137 | -0.0507 | -0.0143 | -0.0355 | -0.0089 | – | -0.0294 | – | – | – | – | – | – | –
N#Cc1cnc(Nc2cc(NC[C@H]3CNCCO3)c(C(F)(F)F)cn2)cn1 [SRA737] + C=CCn1c(=O)c2cnc(Nc3ccc(N4CCN(C)CC4)cc3)nc2n1-c1cccc(C(C)(C)O)n1 [AZD1775] (first compound max 10 µM, partner max 1 µM) | – | – | – | – | – | – | – | – | – | – | – | 0.0322 | – | 0.9 | 0.966 | 0.432 | 0.954 | 0.753 | 0.652 | 0.23
N#Cc1cnc(Nc2cc(NC[C@H]3CNCCO3)c(C(F)(F)F)cn2)cn1 [SRA737] + CCc1c2c(nc3ccc(O)cc13)-c1cc3c(c(=O)n1C2)COC(=O)[C@]3(O)CC [SN-38] (first compound max 10 µM, 7x7, partner max 0.3 µM) | – | – | – | – | – | – | – | – | – | – | – | 0.129 | – | 0.9 | 0.85 | 0.701 | 0.976 | 0.766 | 0.724 | 0.802
N#Cc1cnc(Nc2cc(NC[C@H]3CNCCO3)c(C(F)(F)F)cn2)cn1 [SRA737] + Nc1ccn([C@@H]2O[C@H](CO)[C@@H](O)C2(F)F)c(=O)n1 [Gemcitabine] (first compound max 10 µM, 7x7, partner max 0.3 µM) | – | – | – | – | – | – | – | – | – | – | – | – | – | 0.851 | 0.92 | 0.846 | 1 | 0.725 | 0.708 | 0.724
N#Cc1cnc(Nc2cc(NC[C@H]3CNCCO3)c(C(F)(F)F)cn2)cn1 [SRA737] + O=c1[nH]cc(F)c(=O)[nH]1 [5-Fluorouracil] (first compound max 10 µM, 7x7, partner max 20 µM) | – | – | – | – | – | – | – | – | – | – | – | -0.0699 | – | 0.756 | 0.72 | 0.646 | 0.814 | 0.653 | 0.623 | 0.416
C[C@@H](c1ccc2nccn2c1)n1nnc2ncc(-c3cnn(C)c3)nc21 [Savolitinib] + CN(CC[C@H](CSC1=CC=CC=C1)NC2=C(C=C(C=C2)S(=O)(=O)NC(=O)C3=CC=C(C=C3)N4CCC(CC4)[C@H](C5=CC=CC=C5C6=CC=C(C=C6)Cl)O)S(=O)(=O)C(F)(F)F)CCO [AZD4320] (first compound max 1 µM, 7x7, partner max 1 µM) | -0.057 | -0.0484 | 0.0139 | -0.0352 | -0.0467 | -0.0639 | -0.0527 | -0.0427 | -0.0313 | 0.0044 | -0.0069 | – | -0.0456 | – | – | – | – | – | – | –
